Converted amounts (≈) assume the structure as drawn. “And” between values parts separate entries of the source, which are not always exact repeats. Equal entries are not always repeated. Bounds are passed on as bounds.

In experiment [1] the test system is Haemophilus influenzae. Description: Minimum inhibitory concentration required for primary screening against in-house strain of Haemophilus influenzae tested in vitro; Range- 0.12-16. The experiment is classed as functional.
Experiment [2] concerns Moraxella catarrhalis. Description: Minimum inhibitory concentration required for primary screening against in-house strain of Moraxella catarrhalis tested in vitro; Range- 0.008-0.12. The experiment is classed as functional.
In experiment [3] the test system is Streptococcus pneumoniae. Put plainly: Minimum inhibitory concentration required for primary screening against in-house strain of Streptococcus pneumoniae tested in vitro; Range- 0.008-1. In kind it is functional.
For the next experiment, the system named is Escherichia coli. Put plainly: Minimum inhibitory concentration required for primary screening against in-house strain of Escherichia coli tested in vitro. In kind it is functional.
Experiment [4] relates to Haemophilus influenzae. Put plainly: Minimum inhibitory concentration required for primary screening against in-house strain of Haemophilus influenzae tested in vitro; Range- 0.06->/=16. The experiment is classed as functional.
Experiment [5] deals with Moraxella catarrhalis. Description: Minimum inhibitory concentration required for primary screening against in-house strain of Moraxella catarrhalis tested in vitro. The experiment is classed as functional.
Experiment [6] concerns Moraxella catarrhalis. Description: Minimum inhibitory concentration required for primary screening against in-house strain of Moraxella catarrhalis tested in vitro; Range- 0.015-0.12. The experiment is classed as functional.
A further experiment addresses T1, Peptide deformylase (Escherichia coli, UniProt Q9JN24).
T1 sequence (Q9JN24 whole entry): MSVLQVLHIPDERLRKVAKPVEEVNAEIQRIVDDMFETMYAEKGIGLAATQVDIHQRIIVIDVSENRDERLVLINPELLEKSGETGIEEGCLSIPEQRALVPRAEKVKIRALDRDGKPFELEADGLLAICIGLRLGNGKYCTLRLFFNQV
Put plainly: Inhibitory activity against Escherichia coli peptide deformylase (PDF) Nickel containing enzyme.

The next experiment deals with Staphylococcus capitis. Description: Minimum inhibitory concentration required for primary screening against in-house strain of Staphylococcus capitis tested in vitro. In kind it is functional.
Experiment [7] concerns Streptococcus pneumoniae. Put plainly: Minimum inhibitory concentration required for primary screening against in-house strain of Streptococcus pneumoniae tested in vitro; Range- 0.25-0.5. The experiment is classed as functional.
For experiment [8], the system named is Streptococcus pneumoniae. Put plainly: Minimum inhibitory concentration required for primary screening against in-house strain of Streptococcus pneumoniae tested in vitro; Range- 0.25-2. The experiment is classed as functional.
For experiment [9], the system named is Haemophilus influenzae. Put plainly: Minimum inhibitory concentration required for primary screening against in-house strain of Haemophilus influenzae tested in vitro; Range- 0.5-1. In kind it is functional.
Experiment [10] relates to Moraxella catarrhalis. Description: Minimum inhibitory concentration required for primary screening against in-house strain of Moraxella catarrhalis tested in vitro; Range = 0.015-0.12. The experiment is classed as functional.
In experiment [11] the test system is Streptococcus pneumoniae. Description: Minimum inhibitory concentration required for primary screening against in-house strain of Streptococcus pneumoniae tested in vitro; Range- 2->8. The experiment is classed as functional.
Experiment [12] concerns Haemophilus influenzae. Description: Minimum inhibitory concentration required for primary screening against in-house strain of Haemophilus influenzae tested in vitro; Range- 0.06-8. The experiment is classed as functional.

As for `CC1(C)S[C@@H]2[C@H](NC(=O)[C@H](N)c3ccc(O)cc3)C(=O)N2[C@H]1C(=O)O.O=C(O)[C@H]1/C(=C/CO)O[C@@H]2CC(=O)N21`, the MIC90 with Haemophilus influenzae [1] is 1 µg/mL; against Moraxella catarrhalis [2], 0.12 µg/mL; against Streptococcus pneumoniae [3], 1 µg/mL.

Consider `CC(C)(C)[C@H](NC(=O)[C@H](CC1CCCC1)CN(O)C=O)C(=O)c1ccc(N2CCOCC2)cc1`, for which the MIC is 12.5 µM (≈ 5.92 µg/mL) in the experiment on Escherichia coli; 0.125 µg/mL (≈ 0.264 µM) against Moraxella catarrhalis [5]; 1.5 µM (≈ 0.71 µg/mL) against Staphylococcus capitis; less than 0.5 µg/mL against Streptococcus pneumoniae [7]; less than 1 µg/mL against Haemophilus influenzae [9]. The MIC90 with Haemophilus influenzae [4] is 4 µg/mL (≈ 8.45 µM); against Moraxella catarrhalis [6], 0.12 µg/mL (≈ 0.253 µM); in the experiment on Streptococcus pneumoniae [8], less than 2 µg/mL. Besides, the IC50 (usually the concentration that inhibits the measured activity by half) against Peptide deformylase is 6 nM and 2 nM.

In the case of `CCCC[C@H](CN(O)C=O)C(=O)N[C@H](C(=O)N(C)C)C(C)(C)C`, the MIC90 in the experiment with Moraxella catarrhalis [10] was 0.12 µg/mL (≈ 0.364 µM); in the experiment with Streptococcus pneumoniae [11], more than 16 µg/mL; in the experiment with Haemophilus influenzae [12] it was 2 µg/mL (≈ 6.07 µM).

For the origin of these results see ChEMBL document CHEMBL1137072, “Peptide deformylase inhibitors with activity against respiratory tract pathogens” (Bioorg Med Chem Lett, 2004).
